According to the supplement of paper PMC5662764:
± gives the standard deviation of the averaged measurements.

Columns and labels:
Assay in all cases: normalised growth rate inhibition (GR value) relative to DMSO control (GR (1 = untreated growth, 0 = cytostasis, <0 = cytotoxic)); higher = less growth inhibition
Details in all cases: 72 h
SKBR3 = tested on: SKBR3
Method: (§1)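 Breast cancer cell lines (BT-20, Hs 578T, MCF 10A, MCF7, MDA-MB-231, SK-BR-3) were plated in 384-well plates and treated 24 h later with drugs at six concentrations (0.04-10 µM). Viable cells were counted by Hoechst/dead-cell-stain imaging at 0 and 72 h. Counts were normalised to DMSO controls on the same plate to give the relative cell count and the growth-rate inhibition (GR) value; technical plate triplicates were averaged for each biological replicate.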

MCF10A = tested on: MCF10A
Method: as §1

MDAMB231 = tested on: MDAMB231
Method: as §1

MCF7 = tested on: MCF7
Method: as §1

BT20 = tested on: BT20
Method: as §1

HS578T = tested on: HS578T
Method: as §1

Row | Structure (SMILES) | normalised growth rate inhibition (SKBR3; 0.04 µM) | normalised growth rate inhibition (SKBR3; 0.12 µM) | normalised growth rate inhibition (SKBR3; 0.37 µM) | normalised growth rate inhibition (SKBR3; 1.11 µM) | normalised growth rate inhibition (SKBR3; 3.33 µM) | normalised growth rate inhibition (SKBR3; 10 µM) | normalised growth rate inhibition (MCF10A; 0.04 µM) | normalised growth rate inhibition (MCF10A; 0.12 µM) | normalised growth rate inhibition (MCF10A; 0.37 µM) | normalised growth rate inhibition (MCF10A; 1.11 µM) | normalised growth rate inhibition (MCF10A; 3.33 µM) | normalised growth rate inhibition (MCF10A; 10 µM) | normalised growth rate inhibition (MDAMB231; 0.04 µM) | normalised growth rate inhibition (MDAMB231; 0.12 µM) | normalised growth rate inhibition (MDAMB231; 0.37 µM) | normalised growth rate inhibition (MDAMB231; 1.11 µM) | normalised growth rate inhibition (MDAMB231; 3.33 µM) | normalised growth rate inhibition (MDAMB231; 10 µM) | normalised growth rate inhibition (MCF7; 0.04 µM) | normalised growth rate inhibition (MCF7; 0.12 µM) | normalised growth rate inhibition (MCF7; 0.37 µM) | normalised growth rate inhibition (MCF7; 1.11 µM) | normalised growth rate inhibition (MCF7; 3.33 µM) | normalised growth rate inhibition (MCF7; 10 µM) | normalised growth rate inhibition (BT20; 0.04 µM) | normalised growth rate inhibition (BT20; 0.12 µM) | normalised growth rate inhibition (BT20; 0.37 µM) | normalised growth rate inhibition (BT20; 1.11 µM) | normalised growth rate inhibition (BT20; 3.33 µM) | normalised growth rate inhibition (BT20; 10 µM) | normalised growth rate inhibition (HS578T; 0.04 µM) | normalised growth rate inhibition (HS578T; 0.12 µM) | normalised growth rate inhibition (HS578T; 0.37 µM) | normalised growth rate inhibition (HS578T; 1.11 µM) | normalised growth rate inhibition (HS578T; 3.33 µM) | normalised growth rate inhibition (HS578T; 10 µM)
1 | O=c1[nH]c2ccccc2n1C1CCN(Cc2ccc(-c3[nH]c4cc5ncnc5cc4nc3-c3ccccc3)cc2)CC1 [AKT-inhibitor-1-2] | 0.675 ± 0.14 | 0.759 ± 0.051 | 0.766 ± 0.021 | 0.587 ± 0.091 | 0.599 ± 0.027 | 0.299 ± 0.043 | 0.994 ± 0.01 | 0.979 ± 0.01 | 0.9721 ± 0.0092 | 0.922 ± 0.048 | 0.945 ± 0.047 | 0.605 ± 0.15 | 0.874 ± 0.091 | 0.889 ± 0.086 | 0.918 ± 0.046 | 0.835 ± 0.083 | 0.888 ± 0.023 | 0.56 ± 0.11 | 0.749 ± 0.023 | 0.741 ± 0.034 | 0.701 ± 0.1 | 0.471 ± 0.066 | 0.436 ± 0.11 | -0.0151 ± 0.17 | 0.831 ± 0.027 | 0.851 ± 0.026 | 0.921 ± 0.023 | 0.849 ± 0.015 | 0.872 ± 0.026 | 0.291 ± 0.052 | 0.9753 ± 0.0043 | 0.9556 ± 0.0094 | 0.933 ± 0.0086 | 0.857 ± 0.029 | 0.875 ± 0.024 | 0.388 ± 0.099
2 | O=C(NC1CCNCC1)c1n[nH]cc1NC(=O)c1c(Cl)cccc1Cl [AT-7519] | 0.717 ± 0.24 | 0.14 ± 0.11 | -0.104 ± 0.074 | -0.284 ± 0.15 | -0.41 ± 0.18 | -0.523 ± 0.16 | 0.969 ± 0.028 | 0.88 ± 0.071 | 0.222 ± 0.39 | -0.156 ± 0.23 | -0.256 ± 0.28 | -0.296 ± 0.25 | 0.732 ± 0.19 | 0.291 ± 0.38 | -0.171 ± 0.22 | -0.291 ± 0.22 | -0.355 ± 0.2 | -0.388 ± 0.19 | 0.69 ± 0.41 | 0.0423 ± 0.33 | -0.267 ± 0.063 | -0.302 ± 0.099 | -0.33 ± 0.14 | -0.404 ± 0.13 | 0.891 ± 0.088 | 0.695 ± 0.31 | 0.207 ± 0.43 | -0.207 ± 0.12 | -0.361 ± 0.21 | -0.422 ± 0.18 | 0.899 ± 0.1 | 0.564 ± 0.38 | -0.102 ± 0.11 | -0.14 ± 0.099 | -0.242 ± 0.12 | -0.295 ± 0.11
3 | Cc1ncc(-c2ccnc(Nc3ccc(S(C)(=O)=O)cc3)n2)n1C(C)C [AZD-5438] | 0.891 ± 0.036 | 0.628 ± 0.013 | 0.292 ± 0.086 | -0.137 ± 0.12 | -0.28 ± 0.15 | -0.453 ± 0.2 | 0.958 ± 0.02 | 0.797 ± 0.087 | 0.42 ± 0.18 | -0.0201 ± 0.058 | -0.199 ± 0.24 | -0.188 ± 0.19 | 0.849 ± 0.1 | 0.633 ± 0.069 | 0.31 ± 0.071 | -0.0453 ± 0.074 | -0.205 ± 0.15 | -0.308 ± 0.18 | 0.798 ± 0.13 | 0.373 ± 0.11 | 0.0311 ± 0.046 | -0.106 ± 0.11 | -0.277 ± 0.036 | -0.438 ± 0.14 | 0.884 ± 0.086 | 0.655 ± 0.14 | 0.354 ± 0.2 | 0.0675 ± 0.11 | -0.117 ± 0.1 | -0.372 ± 0.15 | 0.908 ± 0.037 | 0.679 ± 0.063 | 0.274 ± 0.069 | -0.0129 ± 0.054 | -0.104 ± 0.095 | -0.186 ± 0.093
4 | Cc1cc([C@@H](C)Nc2ccccc2C(=O)O)c2nc(N3CCOCC3)cc(=O)n2c1 [AZD-6482] | 0.988 ± 0.013 | 0.915 ± 0.063 | 1 ± 0.077 | 0.87 ± 0.072 | 0.404 ± 0.078 | -0.107 ± 0.21 | 0.993 ± 0.019 | 0.952 ± 0.056 | 0.938 ± 0.055 | 0.891 ± 0.094 | 0.842 ± 0.14 | 0.36 ± 0.24 | 0.932 ± 0.013 | 0.888 ± 0.0098 | 0.867 ± 0.023 | 0.752 ± 0.083 | 0.648 ± 0.11 | 0.446 ± 0.21 | 1.05 ± 0.078 | 0.954 ± 0.065 | 0.988 ± 0.066 | 0.906 ± 0.029 | 0.673 ± 0.078 | 0.0729 ± 0.13 | 0.974 ± 0.05 | 0.895 ± 0.079 | 0.758 ± 0.059 | 0.52 ± 0.078 | 0.245 ± 0.08 | -0.0918 ± 0.069 | 0.929 ± 0.03 | 0.89 ± 0.023 | 0.855 ± 0.034 | 0.768 ± 0.039 | 0.678 ± 0.092 | 0.337 ± 0.16
5 | NC(=O)Nc1cc(-c2cccc(F)c2)sc1C(=O)N[C@H]1CCCNC1 [AZD-7762] | 0.0117 ± 0.2 | -0.11 ± 0.19 | -0.168 ± 0.17 | -0.273 ± 0.16 | -0.301 ± 0.14 | -0.341 ± 0.13 | 0.878 ± 0.077 | 0.749 ± 0.11 | 0.647 ± 0.1 | 0.43 ± 0.097 | 0.188 ± 0.052 | -0.177 ± 0.082 | 0.7 ± 0.19 | 0.387 ± 0.1 | 0.196 ± 0.21 | -0.0971 ± 0.13 | -0.246 ± 0.14 | -0.29 ± 0.16 | 0.27 ± 0.063 | 0.176 ± 0.061 | 0.0985 ± 0.048 | -0.000407 ± 0.031 | -0.103 ± 0.015 | -0.276 ± 0.042 | 1.05 ± 0.054 | 0.874 ± 0.14 | 0.634 ± 0.15 | 0.262 ± 0.15 | -0.0616 ± 0.12 | -0.418 ± 0.099 | 0.41 ± 0.2 | 0.0861 ± 0.15 | -0.0107 ± 0.13 | -0.108 ± 0.14 | -0.187 ± 0.13 | -0.289 ± 0.13
6 | COc1ccc(-c2ccc3c(N4CCOC[C@@H]4C)nc(N4CCOC[C@@H]4C)nc3n2)cc1CO [AZD-8055] | -0.0402 ± 0.13 | -0.0898 ± 0.17 | -0.0997 ± 0.15 | -0.12 ± 0.1 | -0.137 ± 0.12 | -0.363 ± 0.15 | 0.494 ± 0.1 | 0.296 ± 0.088 | 0.205 ± 0.048 | 0.175 ± 0.027 | 0.146 ± 0.012 | -0.102 ± 0.39 | 0.484 ± 0.046 | 0.317 ± 0.048 | 0.245 ± 0.0043 | 0.224 ± 0.015 | 0.146 ± 0.099 | -0.0657 ± 0.25 | 0.0296 ± 0.035 | -0.00352 ± 0.044 | -0.0152 ± 0.064 | -0.00932 ± 0.072 | -0.0344 ± 0.067 | -0.216 ± 0.23 | 0.3 ± 0.14 | 0.179 ± 0.12 | 0.0816 ± 0.063 | 0.0556 ± 0.071 | -0.00646 ± 0.086 | -0.306 ± 0.36 | 0.255 ± 0.041 | 0.187 ± 0.031 | 0.176 ± 0.022 | 0.16 ± 0.023 | 0.111 ± 0.073 | -0.22 ± 0.29
